Experimental findings from patent publication US20060147456A1, “Induction of apoptosis in toll-like receptor expressing tumor cells” (priority 2004, published 2006) are described below.

Residues, ends and D or L forms follow the SMILES beside them. *: point of attachment. Cbz = O=C(OCc1ccccc1)*; CH2F = FC*

Assay type in all cases: cell-based, human
In test [1] the test system is Cama-1, SW527, BT483 and MCF-7. Description: Cell recovery by crystal violet staining, four breast tumor cell lines together. The settings on record: 72 h, 5 μg/ml PGN; for effect on cell recovery of any of the four breast cancer cell lines: 10 μg/ml LPS, 50 ng/ml flagellin, 6 μg/ml R848, 10 μg/ml CpG ODNs; for cell recovery, percent of control, on average: 50 μg/ml Poly IC or 10 μg/ml LPS, average of the four cell lines. How it is done:
(§1) Cell recovery after treatment with TLR ligands was measured by crystal violet staining (Sigma-Aldrich). Cells were plated at 10^4 cells/well in 96 well plates. After 72 hours of culture either with or without TLR ligand, the cells were washed with PBS, fixed in 6% formaldehyde (Sigma-Aldrich) for 20 minutes, washed twice, and then stained with 0.1% crystal violet for 10 minutes. After washes and incubation in 1% SDS for 1 hour, the absorbance was read at 605 nm on a Vmax plate reader (Molecular Devices, Sunnyvale, Calif.). Annexin V staining was performed with an annexin-FITC apoptosis detection kit (BD Pharmingen, San Diego, Calif.) according to the manufacturer's instructions. Sub-diploid cells were detected by staining with 3 μg/mL propidium iodide (PI) (Molecular probes, Eugene, Oreg.), after overnight permeabilization in 70% ethanol. Fluorescence was analyzed by flow cytometry on a FACScalibur (Becton Dickinson, Mountain View, Calif.) equipped with a doublet-discrimination module and using Celiquest Pro software (Becton Dickinson).
Four human breast tumor cell lines, Cama-1, SW527, BT483 and MCF-7, were analyzed for cell death in response to Poly IC. Cells were cultured for 72 hours with 5 μg/ml PGN, 50 μg/ml Poly IC or 10 μg/ml LPS. Control cells were cultured with PBS. Cytotoxicity was assessed by crystal violet staining and expressed as a percent of control.
Furthermore, additional TLR ligands were tested to determine any possible effects on cellular toxicity. The ligands tested were PGN, LPS, Flagellin, R848 and CpG. Cells were cultured for 72 hours with 5 μg/ml PGN, 10 μg/ml LPS, 50 ng/ml flagellin, 6 μg/ml R848, 10 μg/ml CpG ODNs, or with PBS as control. Cell recovery was assessed by crystal violet staining and expressed as a percent of control.

The subject of test [2] is Cama-1 cells. Kind of test: Apoptosis by annexin V staining and flow cytometry. The settings on record: Cama-1; for percentage of apoptotic cells: 5 μg/ml Poly IC or 25 ng/ml TNF-α; for effect on Poly IC induced apoptosis: 5 μg/ml Poly IC. How it is done:
as §1
Cama-1 cells were plated in 6 well plates at 3×10^5 cells per well. After overnight adherence, siRNA transfections were performed for 5 hours in OptiMEM medium (Life technologies) containing 3 μg/mL lipofectamine 2000 (Invivogen) and 100 nM siRNA. Cells were then washed and cultured for 72 hours in complete medium before treatment with Poly IC and apoptosis analysis. siRNA duplexes specific for TLR3, PKR, IRAK-4, TRAF6 and p65 were purchased from Dharmacon (Lafayette, Colo.) as SMART-Pools. TRIF siRNA was purchased from the same supplier as single oligoduplexes (5′-GCUCUUGUAUCUGMGCAC-3′) (SEQ ID NO: 23). TLR3 and TRIF expression was assessed by PCR (35 cycles: 1 min 94° C., 1 min 55° C., 2 min 72° C.) with Taq PCR ReadyMix (Sigma-Aldrich) using following primers: […]
To further investigate the effect of Poly IC treatment on breast tumor cell lines, cell death was analyzed in Cama-1 cells by annexin V staining. Cells were cultured for 24 hours either with or without 5 μg/ml of Poly IC. Apoptosis was measured by annexin V staining and flow cytometry.
We also tried to determine the kinetics of Poly IC induced apoptosis. Cama-1 cells were cultured either with or without 5 μg/ml or 50 ng/ml of Poly IC. The percentage of apoptotic (annexin positive) cells in the culture were measured during the following 30 hours. […] Specifically, Poly IC triggered apoptosis in Cama-1 cells beginning 9 hours after Poly IC addition and reaching up to 80% apoptotic cells after 30 hours of treatment.
Poly AU was analyzed for its effects on apoptosis. Cama-1 cells were cultured for 48 hours either with PBS or with increasing concentrations of Poly AU ranging from 5 ng/ml to 50 μg/ml. Apoptosis was analyzed by measuring the percentage of annexin V positive cells.
In order to determine the pathway of Poly IC induced Cama-1 cell toxicity, RNA interference was used to efficiently downregulate expression of TRIF and PKR. Cama-1 cells were plated in 6 well plates at 3×10^5 cells per well. After overnight adherence, siRNA transfections were performed for 5 hours in OptiMEM medium (Life technologies) containing 3 μg/mL lipofectamine 2000 (Invivogen) and 100 nM siRNA. Cells were transfected with either MOCK (water), control scrambled duplex (scr) siRNA, TRIF siRNA or PKR siRNA.
72 hours after siRNA transfection, Cama-1 cells were cultured for another 24 hours either with or without 5 μg/ml Poly IC. Apoptosis was measured by annexin V staining and expressed as a percentage of apoptotic cells in culture. On average, 10% of control cells (MOCK and scr) that were untreated underwent apoptosis. In contrast, about 75% of control cells (MOCK and scr) that were treated with Poly IC underwent apoptosis.
To further investigate TLR3 mediated cytotoxicity, the involvement of the signaling molecules IRAK4 and TRAF6, both downstream mediators of TLR signaling, were assessed. Cama-1 cells were plated in 6 well plates at 3×10^5 cells per well. […]
(In flow cytometry, cells or beads pass a laser one at a time.)

The subject of test [3] is IL-8. Kind of test: IL-8 secretion by breast cancer cell lines. The settings on record: certain cell lines.
The test system of test [4] is TLR3 mRNA. Kind of test: TLR3 mRNA expression by RT-PCR in Cama-1 cells. Particulars: 48 h, 5 μg/ml, agent alone. How it is done:
Cama-1 cells were analyzed for TLR3 mRNA expression in response to Poly IC. Cama-1 cells were cultured in complete medium (DMEM F12 containing […] glucose and complemented with 2 mM L-glutamine, 10% fetal calf serum, 160 μg/mL gentalline, 2.5 mg/mL sodium bicarbonate) for 48 hours either alone or with LPS (5 μg/ml) and/or with Poly IC (5 μg/ml). The mRNA from each group of cells was extracted. The mRNA was then reverse-transcribed and PCR amplified for 35 cycles (as above in Example 1) with hTLR3 specific primers: TLR3F: […] (SEQ ID NO: 5) and TLR3R: […] (SEQ ID NO: 6). TLR3 mRNA could not be amplified from resting Cama-1 cells.
Amplified DNA from RT-PCR using hTLR3 specific primers was run on a gel.

On to `CCOCc1nc2c(N)nc3ccccc3c2n1CC(C)(C)O` [R848], for which the “effect on cell recovery of any of the four breast cancer cell lines” value (“effect on cell recovery” below) in test [1] is “None of those ligands significantly reduced cell recovery”.

Consider “polyadenylic-polyuridylic acid [Poly AU]”, for which the “apoptosis (annexin V positive cells)” value in test [2] (48 h, 5 ng/ml to 50 μg/ml Poly AU) was “triggers apoptosis”.

Regarding Peptidoglycan [PGN], in test [1], the “effect on cell recovery” value is given as “None of those ligands significantly reduced cell recovery” and the “cell recovery, percent of control, on average” value came to 95%. Besides, in test [3], the “secretion of IL-8” value is “induced secretion of IL-8 in certain cell lines”.

Regarding lipopolysaccharide [LPS], in test [1], the “effect on cell recovery” value was “None of those ligands significantly reduced cell recovery” and the “cell recovery, percent of control, on average” value worked out at 95%. Also, in test [4], the “TLR3 mRNA expression” value was “did not affect TLR3 mRNA expression”.

As to TNF-α, the “percentage of apoptotic cells” value in test [2] (25 μM z-VAD-fmk pre-incubation 1 h, 24 h) was 10%; in test [2] (DMSO pre-incubation 1 h, 24 h) it was 40%; in test [2] (absence of antibody (Example 12)), 40%; in test [2] (pre-incubated with 10 μg/ml CHX, untreated 15%) it was 70%; in test [2] (pre-incubated with 20 μg/ml neutralizing anti TNF-α mAb) it was 10%.

On to Flagellin, for which the “effect on cell recovery” value in test [1] is listed as “None of those ligands significantly reduced cell recovery”.

As to `COC(=O)C[C@H](NC(=O)[C@H](C)NC(=O)[C@@H](NC(=O)OCc1ccccc1)C(C)C)C(=O)CF` [z-VAD-fmk] (Cbz-Val-Ala-Asp(OMe)-CH2F), the “effect on Poly IC induced apoptosis” value in test [2] (annexin V) was “greatly reduced Poly IC induced apoptosis”.

In the case of `C[C@@H]1C[C@@H]([C@H](O)CC2CC(=O)NC(=O)C2)C(=O)[C@@H](C)C1` [CHX, Cycloheximide], in test [2] (25 ng/ml TNF-α, annexin V), the “effect on TNF-α induced apoptosis” value was “significantly sensitized Cama-1 cells to TNF-α induced apoptosis”. The “effect on Poly IC induced apoptosis” value in test [2] (annexin V) is recorded as “partially protected the cells against Poly IC induced apoptosis”.
